From patent US20130310306A1, “HUMAN LACTOFERRIN DERIVED PEPTIDES AND THEIR USE” (PharmaSurgics In Sweden AB, priority 2011, published 2013)

Experiments:
[1] = tested on: TNF-α production in LPS stimulated THP-1 cells; assay: Inhibition of TNF-α production in LPS stimulated THP-1 cells (ELISA); details: for TNF-α at 40 μM peptide / TNF-α at 4 μM peptide / TNF-α at 10 μM peptide: mean relative secretion; for TNF-α at 40 μM peptide: stimulated level without peptide = 100%, basal = 0%
S. aureus (CCUG 1800) = assay: Minimal microbicidal concentration (MMC99) assay, S. aureus; type: cell-based; details: 2 hours; for MMC99 μM in 50% SWF: 50% heat inactivated simulated wound fluid
Experimental: Antimicrobial Activity was Measured as Bactericidal Effect on S. Aureus Using Minimal Microbicidal Concentration, MMC99, Assay)
S. aureus (#1800; CCUG, Gothenburg, Sweden) cultured on blood-agar plates [Columbia agar (Oxoid, Basingstoke, UK) supplemented with 5% defibrinated horse blood (National Veterinary Institute (SVA), Uppsala, Sweden)] were transferred to brain heart infusion broth (3.7% BHI; Difco, BD Diagnostics, Franklin Lakes, N.J., USA) and incubated in a shaker at 250 rpm+37° C. over night. The culture was thereafter be diluted 1:10 in fresh BHI broth and incubated for additional two hours to reach log-phase growth. The bacteria were pelleted and suspended in 1% BHI medium (BHI broth diluted 100 times in ultra-pure water) to a concentration of 10^7 bacteria/ml as estimated by measuring optical density at 600 nm. Peptides were serially diluted by two-fold steps from 160 μM to 1.25 μM in 1% BHI medium. The peptides (100 μl) were thereafter incubated with bacteria (5 μl á 10^7 bact./ml) for 2 hours at +37° C. Drops (5 μl) of the suspension were placed on blood agar plates. The blood agar plates were incubated over night at +37° C. The MMC99 values, i.e. the lowest peptide concentration needed to achieve a 99% reduction of viable bacteria, were recorded (Table 3). The concentration of the bacterial suspension used in the assay was confirmed by viable counts on blood agar plates.
S. aureus (#1800; CCUG, Gothenburg, Sweden) cultured on blood-agar plates [Columbia agar (Oxoid, Basingstoke, UK) supplemented with 5% defibrinated horse blood (National Veterinary Institute (SVA), Uppsala, Sweden)] were transferred to brain heart infusion broth (3.7% BHI; Difco, BD Diagnostics, Franklin Lakes, N.J., USA) and incubated in a shaker at 250 rpm+37° C. over night. The culture was thereafter be diluted 1:10 in fresh BHI broth and incubated for additional two hours to reach log-phase growth. The bacteria were pelleted and suspended in 1% BHI medium (BHI broth diluted 100 times in ultra-pure water) to a final concentration of 10^7 bacteria/ml as estimated by measuring optical density at 600 nm. Peptides were serially diluted by two-fold steps from 400 μM to 0.78 μM in either 1% BHI medium or in 50% heat inactivated simulated wound fluid [SWF, containing 1 part 0.1% peptone (Oxoid, Basingstoke, UK) in saline and 1 part fetal bovine serum, diluted 2 times in ultra-pure water].
The peptides (100 μl) were thereafter incubated with bacteria (5 μl á 10^7 bact./ml) for 2 hours at +37° C. Drops (5 μl) of the suspension were placed on blood agar plates. The blood agar plates were incubated over night at +37° C. The MMC99 values, i.e. the lowest peptide concentration needed to achieve a 99% reduction of viable bacteria were recorded (Table 6). The concentration of the bacterial suspension used in the assay was confirmed by viable counts on blood agar plates.
The antimicrobial effects of the peptide 265 (SEQ ID NO: 27) was analysed by MMC99 (minimal microbicidal concentration) assay against S. aureus (CCUG 1800), MRSA (CCUG 41879), P. aeruginosa (ATCC 15442), E. coli (CCUG 31246), S. pyogenes (CCUG 4207), P. acnes (CCUG 1794T), S. epidermidis (ATCC12228), K. pneumoniae (ATCC 13883), A. baumannii (ATCC 19606), and C. albicans (ATCC 64549). The peptides were purchased from Biopeptide Company (San Diego, Calif., USA) and Bachem AG (Bubendorf, Switzerland) and results are presented in Table 8A and 8B respectively.
Peptide was serially diluted in two different assay medium, 1% BHI medium (brain-heart infusion medium) or 50% heat inactivated simulated wound fluid (SWF), and thereafter incubated with the microorganisms for 2 hours. Drops of the suspension were placed on blood agar plates. The MMC99 values, i.e. the lowest peptide concentration needed to achieve a 99% reduction of viable microorganisms, were recorded. As presented in Table 8, the peptide has the ability to kill microorganisms frequently appearing in infections.

[2] = screen 1, 99% reduction of viable bacteria

| Sequence | TNF-α at 40 μM peptide ([1]; screen 2, 40 μM peptide) [%] | TNF-α at 4 μM peptide ([1]; screen 2) [%] | TNF-α at 10 μM peptide ([1]; screen 2) [%] | MMC99 μM in 1% BHI medium (S. aureus (CCUG 1800); screen 2) [µM] | MMC99 μM in 50% SWF (S. aureus (CCUG 1800); screen 2) [µM] | TNF-α at 40 μM peptide ([1]; screen 1, 40 μM peptide, 6 h) [%] | MMC99 μM in 1% BHI medium (S. aureus (CCUG 1800); [2]) [µM] | TNF-α activities at 40 μM ([1]; 40 μM peptide, result in words) | TNF-α activity at higher concentrations ([1]; concentrations higher than 40 μM, result in words) |
| --- | --- | --- | --- | --- | --- | --- | --- | --- | --- |
| CFLWRRNMRKVRGSRRRRG [Peptide 276] | 38.8 | 111.0 | 135.3 | 6.25 | 12.5 |  |  |  |  |
| CFQWKRAMRKVRGPPVSCIKRDS [Peptide 159] |  |  |  |  |  | 60 | 20 |  |  |
| CFQWKRAMRKVRGSRRRRG [Peptide 155] |  |  |  |  |  | 5 | 10 |  |  |
| CFQWQRNMRKVRGPPVSCIKR [Peptide 157] |  |  |  |  |  | 153 | 20 |  |  |
| EATKCFQWQRNMRKVRGPPVSSIKR [Peptide 156] |  |  |  |  |  | 124 | 20 |  |  |
| FQWKRRKRMRRGSVRRRG [Peptide 266] | 101.1 |  |  |  |  |  |  |  |  |
| FQWKRRMRKVRGSKKKKG [Peptide 257] | 62.8 | 114.5 | 109.1 | 6.25 | 200 |  |  |  |  |
| FQWKRRMRKVRGSLRRWG [Peptide 258] | 39.8 | 110.4 | 115.4 | 6.25 | 12.5 |  |  |  |  |
| FQWKRRMRKVRGSRRRRG [Peptide 127] |  |  |  |  |  | 9 | 5 |  |  |
| FQWKRRMRKVRSGRRRGR [Peptide 264] | 87.2 |  |  |  |  |  |  |  |  |
| FQWQRKMRKVRGSRRRRG [Peptide 126] |  |  |  |  |  | 107 | 10 |  |  |
| FQWQRNMRKVRGPPSRRRRG [Peptide 154] |  |  |  |  |  | 162 | 10 |  |  |
| FQWQRNMRKVRGPSRRRRG [Peptide 153] |  |  |  |  |  | 159 | 10 |  |  |
| FQWQRNMRKVRGSRRRRG [Peptide 116] |  |  |  |  |  | 83 | 10 |  |  |
| FQWQRNMRKVRGSRRRRG [Peptide 150] |  |  |  |  |  | 134 | 10 |  |  |
| FQWQRNMRKVRGSRRRRG [Peptide 152] |  |  |  |  |  | 110 | 10 |  |  |
| FQWQRNMRKVRGSRRRRG [Peptide 224] | 113.4 |  |  | 12.5 | 400 |  |  |  |  |

| Sequence | TNF-α at 40 μM peptide ([1]; screen 2, 40 μM peptide) [%] | TNF-α at 4 μM peptide ([1]; screen 2) [%] | TNF-α at 10 μM peptide ([1]; screen 2) [%] | MMC99 μM in 1% BHI medium (S. aureus (CCUG 1800); screen 2) [µM] | MMC99 μM in 50% SWF (S. aureus (CCUG 1800); screen 2) [µM] | TNF-α at 40 μM peptide ([1]; screen 1, 40 μM peptide, 6 h) [%] | MMC99 μM in 1% BHI medium (S. aureus (CCUG 1800); [2]) [µM] | TNF-α activities at 40 μM ([1]; 40 μM peptide, result in words) | TNF-α activity at higher concentrations ([1]; concentrations higher than 40 μM, result in words) |
| --- | --- | --- | --- | --- | --- | --- | --- | --- | --- |
| FQWQRNMRKVRGSRRRRG [Peptide 256] | 100.5 |  |  | 12.5 | 200 |  |  |  |  |
| FQWQRNMRKVRGSRRRRG [Peptide 282] | 114.8 |  |  | 12.5 | 200 |  |  |  |  |
| FQWQRNMRKVRGSRRRRG [template peptide, reference compound] |  |  |  |  |  |  |  | almost inactive | active |
| FRWKRRMRKVRGSRRRQG [Peptide 263] | 61.4 | 93.6 | 100.1 | 6.25 | 100 |  |  |  |  |
| FWWKKAMKKVKGTRRRRG [Peptide 273] | 52.7 | 86.2 | 78.6 | 6.25 | 12.5 |  |  |  |  |
| FWWKRAMRKVRGSRRRRG [Peptide 132] |  |  |  |  |  | 18 | 5 |  |  |
| FWWKRAMRKVRLSRRRRG [Peptide 270] | 23.1 | 96.2 | 71.5 | 6.25 | 12.5 |  |  |  |  |
| FWWKRAMRKVRNSRRRRG [Peptide 271] | 24.5 | 101.7 | 74.4 | 6.25 | 6.25 |  |  |  |  |
| GRRRRSFQWKRRMRKVR [Peptide 269] | 66.2 | 115.7 | 113.8 | 6.25 | 200 |  |  |  |  |
| GRRRRSGRVKRMRRKQWF [Peptide 268] | 74.4 | 114.5 | 129.7 | 6.25 | 200 |  |  |  |  |
| KQWKRMMRKVFSVRRWFL [Peptide 262] | 12.1 | 79.6 | 45.3 | 6.25 | 6.25 |  |  |  |  |
| KQWKRWMRKVFVSLRRVG [Peptide 260] | 5.9 | 99.3 | 74.0 | 6.25 | 25 |  |  |  |  |
| RQWKRRMRKVFHSYRRMG [Peptide 259] | 33.0 | 108.4 | 108.5 | 6.25 | 25 |  |  |  |  |
| RQWKRVMRKVFGSRWWRG [Peptide 261] | 24.5 | 86.0 | 56.2 | 12.5 | 12.5 |  |  |  |  |
| VYYKRTARKARGSRRRRG [Peptide 272] | 102.8 |  |  |  |  |  |  |  |  |
| WFQWKRAMRKVRGSRRRRG [Peptide 130] |  |  |  |  |  | 6 | 5 |  |  |
